Data: US4511565A, “7α-Acylthio-1α,2α-methylene- 3-oxo-17α-pregn-4-ene-21,17-carbolactones, their production and pharmaceutical preparations containing them” (Schering Aktiengesellschaft, priority 1982, dated 1985)
Entries after “also recorded” stand apart in the source; their conditions may differ.

What was measured:
[1] = test system: aldosterone; test: antialdosterone effect in the experimental model by Hollmann; format: in vivo; conditions: spironolactone=1
Description: The new compounds of Formula I have the properties of neutralizing or reversing the effect of aldosterone or deoxycorticosterone on the elimination of sodium and potassium. The compounds according to this invention are thus suited for the treatment of certain forms of hypertension, e.g., those treatable by spironolactone, edemas, primary aldosteronism, and other endocrine disturbances caused by aldosterone. They can also be used as diuretics.

[2] = test system: male patients; conditions: extended treatment of male patients; traced to antiandrogenic side effect; cited from earlier work
[3] = test system: women; conditions: ascribed to the gestagenic side effect; cited from earlier work

| Structure (SMILES) | Relative antialdosterone effect [1] | undesirable endocrine side effects in men [2] | side effects on women [3] |
| --- | --- | --- | --- |
| CC(=O)S[C@@H]1CC2=CC(=O)[C@@H]3C[C@@H]3[C@]2(C)[C@H]2CC[C@@]3(C)[C@@H]([C@H]4C[C@H]4[C@@]34CCC(=O)O4)[C@H]12 [C, 7α-acetylthio-1α,2α;15α,16α-dimethylene-3-oxo-17α-pregn-4-ene-21,17-carbolactone] | 3-4 |  |  |
| CC(=O)S[C@@H]1CC2=CC(=O)[C@@H]3C[C@@H]3[C@]2(C)[C@H]2CC[C@@]3(C)[C@@H]([C@@H]4C[C@@H]4[C@@]34CCC(=O)O4)[C@H]12 [B, 7α-acetylthio-1α,2α;15β,16β-dimethylene-3-oxo-17α-pregn-4-ene-21,17-carbolactone] | 2-3 |  |  |
| CC(=O)S[C@@H]1CC2=CC(=O)CC[C@]2(C)[C@H]2CC[C@@]3(C)[C@@H](CC[C@@]34CCC(=O)O4)[C@H]12 [Spironolactone, spironolactone] |  | gynecomastia; also recorded: impotence | amenorrhea; also recorded: menstrual irregularities |
